Measurements as given in US11357783B2 (CAREGEN CO., LTD., priority 2016, dated 2022).

How the values were obtained:
5α reductase = experiment: Effect on 5α reductase activity: testosterone reacted with liver cell extracts, testosterone and DHT by HPLC; format: biochemical; conditions: 1 hour at 37° C.
Method: The reactant of putting the liver cell extracts in testosterone and reacting it for 1 hour at 37° C. is the control. After the reaction is completed, the amount of testosterone and DHT were confirmed through HPLC. The HPLC analysis was carried out under the following conditions. • C18 column • UV 240 nm • flow rate: 1 mi/minute • mobile phase: A: 0.1% Formic acid in water • B: 0.1% Formic acid in acetonitrile • gradient: 0 min B 5%˜30 min B 80%

[1] = Solubility test in distilled water; format: physicochemical; conditions: 10 mg/ml

CC(C)(C)NC(=O)[C@H]1CC[C@H]2[C@@H]3CC[C@H]4NC(=O)C=C[C@]4(C)[C@H]3CC[C@]12C [finasteride, N-(1,1-dimethylethyl)-3-oxo-(5α,17β)-4-azaandrost-1-ene-17-carboxamide]
concentration of DHT compared with the control (5α reductase): decreased | concentration of testosterone compared with the control (5α reductase): increased | solubility in water [1]: hardly dissolved in water
